# According to a melting point compilation (Tetko et al.; mined from patent text by program, amines drawn as free bases though some values may be those of a salt):
row,melting point [°C],Structure (SMILES)
1,181 to 183,COc1ccc(C2Nc3ccccc3-c3c([N+](=O)[O-])cnn32)cc1 (stereo not given)
2,> 300,Nc1nc2[nH]c(=S)sc2c(=O)[nH]1
3,87 to 88,O=C(Cl)N1CC(Oc2cccc(Br)c2)C1
4,134 to 136,CC(C(=O)O)c1ccc2c(c1)C(=O)Cc1ccccc1C2 (stereo not given)
5,167 to 169,CC(C)(C)OC(=O)N1CCCC1C(=O)Nc1cccc(-c2cc(-c3ccccc3O)nc(NC(=O)c3cccs3)c2C#N)c1 (stereo not given)
6,88 to 91,CN(C)C=CC(=O)c1ccccc1
7,180 to 182,COc1ccc(Nc2cc(NC(C)C)ncn2)cc1
8,115 to 116,CCOCc1nc2cnc3cc(Br)cnc3c2n1CC(C)C
9,58 to 60,C=C(F)CCc1cccc(C2(c3ccc(OC(F)F)cc3)N=C(N)N(C)C2=O)c1 (stereo not given)
10,80 to 81,COc1cc(-n2nnn(C)c2=O)c(Cl)cc1Cl
11,253,CCc1nc2sc(S(N)(=O)=O)cc2c(=O)n1-c1ccccc1Cl
12,70 to 71,CSc1nc(Br)cc(Oc2cccc(C(F)(F)F)c2)n1
13,170 to 173,O=C1OC(=O)C(F)=C1F
14,195 to 196,CC(=O)COc1ccc(N2N=C3c4cc(F)ccc4CCC3CC2=O)cc1 (stereo not given)
15,96 to 98,CCOC(=O)c1c(C)[nH]c2ccccc12
16,112,CCOC(=O)c1ccc(OCC2CN(c3nnc(C)s3)CCO2)cc1 (stereo not given)
17,109 to 112,CC1CC(C(=O)O)CCN1C(=O)OC(C)(C)C (stereo not given)
18,185 to 187,CCCC1(Cl)Cc2cc(OCC(=O)O)c(Cl)c(Cl)c2C1=O (stereo not given)
19,95 to 97,CC(=O)c1cc(CS(C)=O)ccc1O (stereo not given)
20,204 to 206,O=C1CCC(N2C(=O)c3cccc(NC(=O)COCc4ccccc4)c3C2=O)C(=O)N1 (stereo not given)
21,101 to 106,CC(C)(C)OC(=O)N1CCC(c2cc(F)ccc2F)(S(=O)(=O)c2ccc(Cl)cc2)CC1
22,214,NC(=O)Nc1cccc2c1C(=O)c1c-2n[nH]c1-c1cccs1
23,215 to 218,COc1ccccc1NC(=O)Nc1nc(Oc2ccc3ccccc3c2)nc(N(CCC(=O)O)Cc2cccc(Cl)c2)n1
24,182 to 183,O=C(Oc1cc2ccccc2cc1OC(=O)c1cc(O)c(O)c(O)c1)c1cc(O)c(O)c(O)c1

row,melting point [°C],Structure (SMILES)
1,215 to 220,O=C(CC1CCC(CC(=O)Oc2cc(O)cc(O)c2)CC1)Oc1cc(O)cc(O)c1 (stereo not given)
2,128 to 130,N#Cc1c(-c2ccccc2)c(Cl)n2c1CNCC2
3,114 to 116,OCc1cccc(-c2cccc(F)c2)c1-c1cccc(F)c1
4,137 to 138,O=C1c2ccccc2C(=O)N1C[C@H]1CN2C(=O)C[C@@H]2O1 (racemic)
5,131,COc1ccccc1-c1cccc(C(c2ccccc2)c2ccccc2)c1O
6,135 to 137,CC1CCC(N2c3ccccc3Oc3ccccc32)=N1 (stereo not given)
7,255 to 256,CCc1ccccc1NC(=O)c1ccccc1SSc1ccccc1C(=O)Nc1ccccc1CC
8,> 300,CC1CCc2c(-c3ccc([N+](=O)[O-])cc3)ccc3c(=O)c(C(=O)O)cn1c23 (stereo not given)
9,145 to 148,O=C(c1cccs1)c1cnn2c(-c3ccc(Cl)nc3)ccnc12
10,190 to 192,Cc1cc(C)c2nc3sccn3c(=O)c2c1
11,40 to 41,OCCCc1conc1-c1ccc(F)c(Br)c1
12,339 to 343,COc1ccc(C=C2SC(N3CCOCC3)=NC2=O)cc1-c1ccc(O)c(C23CC4CC(CC(C4)C2)C3)c1
13,136 to 138,COc1ccc(CCCCC(=O)O)cc1NC(=O)C[C@H]1O[C@H](c2cccc(OC)c2OC)c2cc(Cl)ccc2N(CC(C)(C)CO)C1=O
14,80 to 81,CCOC(=O)c1c(C(F)(F)F)nc(C(F)F)c(C(=O)OC)c1N(C)C
15,224 to 225,O=C(O)Cc1ccc(NC(=O)C(COc2ccccc2)NS(=O)(=O)c2ccc(I)cc2)cc1 (racemic)
16,158 to 161,O=C1c2cc([N+](=O)[O-])cc([N+](=O)[O-])c2OC12CC2
17,275 to 277,Cc1cc(C(F)(C(F)(F)F)C(F)(F)F)ccc1NC(=O)c1ccnc(Cl)c1C(=O)NC(C)C
18,179 to 181,CCC(CC)Oc1cc(C)nc2c1NC(=O)CN2c1c(C)cc(C)cc1C
19,85 to 89,CC(C)(O)c1ccc(-c2ccc3nnn(Cc4ccc5ncccc5c4)c3n2)cc1F
20,62,CC(=O)OCCCCc1c(C)[nH]c(C(=O)OC(C)(C)C)c1C
21,136 to 137,Cc1noc(-c2ccc(I)cc2)n1
22,214 to 215,CS(=O)(=O)Nc1ccc(OCC2CCN(c3ccncc3)CC2)cc1
23,105 to 108,CC(C)Cc1ccc2c([N+](=O)[O-])c(O)c(O)cc2c1
24,207,CC(=O)Nc1ccc(Sc2c(N)cc(C(=O)O)cc2S(N)(=O)=O)cc1

row,melting point [°C],Structure (SMILES)
1,50 to 52,CCOC(=O)c1cc(CC)sc1Nc1ccccc1N
2,78 to 79,O=C(c1ccc(Cl)cc1)c1ccc(SC(F)(F)F)cc1
3,53 to 55,CCCCC1OC(=O)c2cc([N+](=O)[O-])ccc21 (stereo not given)
4,178,CCS(=O)(=O)Nc1ccc(Cc2ccc(NC3=NCCN3)cc2)cc1
5,199 to 200,COc1cc(OC(=O)c2ccc(OC)c(C34CC5CC(CC(C5)C3)C4)c2)ccc1C(=O)O
6,164 to 165,Cn1cc(C(=O)Nc2ccccc2-c2ccc(C(F)(F)F)cc2)c(C(F)F)n1
7,132 to 133,COC1(C)CSC2C(NC(=O)Cc3ccccc3)C(=O)N2C1C(=O)OCC(Cl)(Cl)Cl (stereo not given)
8,252 to 253,O=c1ccn(-c2ccc(F)cc2)nc1-c1ccnn1-c1ccccc1
9,156 to 157,Cn1nc(C(=O)Nc2ccc(OCC(C)(C)C)c(C#N)c2)cc1-c1ccccc1
10,> 325,CN1CCc2c(c(P(=O)(O)O)cc3[nH]c(=O)c(=O)[nH]c23)C1
11,232 to 235,CC(=O)N1c2ccc(F)cc2CC1C(N)=O (stereo not given)
12,77 to 80,Cc1c(F)cc(C(=O)OC(C)(C)C)cc1I
13,177 to 178,COc1ccc(-c2cc(O)ccc2-c2ncnc(-c3ccccc3)n2)cc1
14,104 to 105,CCOC(=O)COc1ccc(NC(=O)OC(C)(C)C)cc1C(F)(F)F
15,78 to 80,CCOC(=O)C=C1C(OC)CC1c1cccc(C2(c3ccc(OC(F)F)cc3)N=C(N)N(C)C2=O)c1 (stereo not given)
16,137 to 141,CCOC(=O)C(C)c1ccc(O)c(NC(C)=O)c1 (stereo not given)
17,32,O=Cc1ccc(OC[C@H]2CO2)cc1
18,245 to 247,COc1cc2ccc(C(=O)O)cc2cc1OC
19,109 to 110,O=C(OCc1ccccc1)c1ccc(O)c(CO)c1
20,53 to 56,CCCSc1nc[nH]n1
21,< 84,CCC1=NCC(c2cccc(O)c2)O1 (stereo not given)
22,180 to 192,COc1cc(-c2nn(C(C)(C)C)c(N)c2C(N)=O)cc(OC)c1OC
23,86 to 89,CN(C)C(=O)CSc1nc2ccccc2cc1-c1ccccc1
24,184 to 186,O=c1ccc(Br)cn1CC1(O)CCN(Cc2ccccc2F)CC1

row,melting point [°C],Structure (SMILES)
1,250 to 251,Cn1ncc(/C=C/C(=O)Nc2ccc(CNC(=O)c3ccccc3)cc2)c1-c1ccc(F)cc1
2,89 to 90,CCOc1ccc(C(c2ccc(C(C)CC)cc2)C(CC)[N+](=O)[O-])cc1 (stereo not given)
3,130,N#Cc1ccc(OCc2ccccc2)cc1O
4,230 to 233,COc1ccc(-c2nc(NC(=O)c3ccccc3)sc2-c2ccnc(NC(=O)c3ccccc3)c2)cc1
5,111 to 112,O=[N+]([O-])c1oc2ccc(CN3CCCC3)cc2c1-c1ccccc1
6,155,CCOc1nn(C(=O)NS(=O)(=O)c2c(C)cccc2OC(C)C)c(=O)n1C
7,162 to 165,COCCOc1ccc2sc(C(=O)Nc3ccccc3N)cc2c1
8,228,CCc1nc(C)c(C(=O)Nc2cc(Oc3ccc4nc(NC(=O)C5CC5)cn4n3)ccc2F)o1
9,275 to 280,O=C1c2ccc(Sc3ccc4c(c3)C(=O)N(c3ccccc3)C4=O)cc2C(=O)N1c1ccccc1
10,120 to 122,CC(/C=C1/C(=O)N(c2ccccc2)C1c1ccccc1)=NOCCCN1CCCCC1 (stereo not given)
11,146 to 150,Cn1c(-c2ccc(OC3CCN(C4CCC4)CC3)cc2)nc2ncccc2c1=O
12,203 to 206,O=C1COc2c(cc(Cl)cc2C(=O)NC2CCN(Cc3ccccc3)CC2)N1
13,121 to 123,COC(=O)Cc1nsc(NC(=O)OCc2ccccc2)n1
14,268 to 270,CCCCCCCCCCCCCCCCCC(=O)c1c[nH]c2cc(C(=O)O)ccc12
15,277 to 279,O=c1cc(-c2ccc(O)cc2[N+](=O)[O-])oc2ccccc12
16,263,COc1ccc(C=CC(=O)NNC(=O)C=Cc2ccccc2)cc1
17,123 to 125,COS(=O)c1cc(C(=O)CBr)ccc1C (stereo not given)
18,141 to 143,O=[N+]([O-])c1ccc(Sc2ncc(Cl)cn2)s1
19,74,CN1c2ccc(C(C)(C)C)cc2[C@H]2Cc3ccccc3[C@H]21 (relative stereo)
20,170 to 172,O=C1NN(c2nc3ccc(Cl)cc3s2)C(c2ccccc2)C1c1ccccc1 (stereo not given)
21,> 268,O=Cc1ccc(-c2cnc3cnc(-c4ccc(O)cc4)nc3c2)cc1

row,Structure (SMILES),melting point [°C]
1,Cc1ccc(S(=O)(=O)OCCN(CCOS(=O)(=O)c2ccc(C)cc2)S(=O)(=O)c2ccc(C)cc2)cc1,85 to 87
2,COC(=O)C1=C2Nc3ccccc3C23CCNC3CC1 (stereo not given),145 to 148
3,Nc1ncnc2c1ncn2Cc1nc2cccc(F)c2c(=O)n1-c1ccccc1Cl,159 to 172
4,Fc1ccc(Cn2c(NC3CCN(CCc4ccccc4)CC3)nc3ccc(F)cc32)cc1,178
5,CCNS(=O)(=O)/C=C/c1ccc2[nH]cc(C3CCN(Cc4ccccc4)CC3)c2c1,178 to 180
6,CC(C)(NC(=O)c1cc2c(n(CC3CCCCC3)c1=O)CCCCCC2)C(=O)N(N)S(C)(=O)=O,177 to 178
7,Cn1cc(C2=CCN(CCCn3nnc4ccccc4c3=O)CC2)c2ccccc21,70
